According to patent US4057635A, “Carbamates of ergolines and therapeutic compositions therewith” (Simes Societa Italiana Medicinali e Sintetici S.p.A., priority 1973, dated 1977):

Key:
therapeutic index = format: in vivo
Text: The active concentrations are comprised between 2 and 20 micrograms per ml. […] The range of the active dosages is comprised between 20 and 100 micrograms/kilogram e.v. In vitro, the compound XXXVIII releases the muscles of the aorta of rabbits at concentrations of 50-100 micrograms/ml. The therapeutic index is favourable for an indication of the product as an antispastic of the gastro-intestinal system and the biliary tract.
(§1) The active dosages are comprised between 5 and 20 micrograms/ml in vitro, and from 50 to 500 micrograms/kilogram e.v. The acute toxicity of the compound LI has proven to be extremely low and consequently the therapeutic index is favorable for its use as a spasmolytic of the smooth muscles of the vessels and organs other than vessels.

acute toxicity = details: in vivo
Text: as §1

bowel and vessel muscles [1] = test: spasmolytic properties on the bowel and vessel muscles in vitro
Text: as §1

bowel and vessel muscles [2] = test: spasmolytic properties on the bowel and vessel muscles in vivo
Text: as §1

central nervous system [3] = test: stimulation of the central nervous system; details: in vivo
dogs = test: peripheral vasoconstrictive hypertensive action in vivo, in dogs
central nervous system [4] = test: antiserotoninic effects in vivo at the level of the central nervous system; details: s.c.
[5] = test system: alpha-adrenergic receptors; test: stimulation of the alpha-adrenergic receptors; details: on the basis of the tests carried out
[6] = test system: smooth muscles of the vessels; test: antiserotoninic effects in vivo at the level of the smooth muscles of the vessels; details: e.v.
ileum = test: spasmolytic activity on isolated ileum of guinea pigs
Text: as §1
In addition, the compound IV acts on the trachea of guinea pigs as a releasing agent at the concentration of 0.5-1 microgram/ml. On the ileum of the same animals, as a spasmolytic at a concentration of 50-100 micrograms/ml and on the uterus and stomach of rats as an antiserotoninic at the concentration of 0.05-0.1 micrograms/ml. […] The compound on the basis of the pharmacological and toxicological properties which have been detected can be employed for the treatment of headaches.

[7] = test system: muscles of the peripheral vessels; test: spasmolytic effects in vivo on the muscles of the peripheral vessels; details: e.v.
Text: as §1

deferent vessel = test: spasmolytic activity on isolated deferent vessel of rats
Text: as §1

In the case of CC(Cc1ccccc1)NC(=O)OC[C@@H]1C[C@@H]2c3cccc4[nH]cc(c34)C[C@H]2N(C)C1 (stereo partly drawn) [compound LI, D-6-methyl-8β-(α-methylphenethylaminocarbonyloxymethyl)-ergoline], the therapeutic index (therapeutic index; as spasmolytic of the smooth muscles of the vessels and organs other than vessels) is reported as “favorable”, the acute toxicity (acute toxicity) is reported as “extremely low” and the “spasmolytic properties on the bowel and vessel muscles” value (bowel and vessel muscles [1]) is reported as “retained”. The “spasmolytic properties on the bowel and vessel muscles” value (bowel and vessel muscles [2]) was “retained” and the “stimulating effects on the central nervous system” value (central nervous system [3]) was “lost the stimulating effects on the central nervous system”.
In the case of CN(C)C(=O)OC[C@@H]1C=C2c3cccc4[nH]cc(c34)C[C@H]2N(C)C1 [compound IV], the “dose dependence of the vasoconstrictive hypertensive effect” value (dogs; dogs and cats, e.v.) is reported as “proportional to the dosage”, the “peripheral vasoconstrictive hypertensive action” value (dogs; in vivo) is reported as “strong peripheral vasoconstrictive hypertensive action” and the “active dosages (antiserotoninic, central nervous system)” value (central nervous system [4]) is reported as 0.5-1 milligrams/kilograms. For the same molecule, the “action on the alpha-adrenergic receptors” value [5] was “stimulant of the alpha-adrenergic receptors” and the “active dosages (antiserotoninic, smooth muscles of the vessels)” value [6] was 5-10 micrograms/kilogram.
In the case of CN1C[C@H](COC(=O)N2CCCCCC2)C[C@@H]2c3cccc4[nH]cc(c34)C[C@H]21 [compound XXXVIII, D-6-methyl-8β-(perhydroazepinylcarbonyloxymethyl)-ergoline], the therapeutic index (therapeutic index; as antispastic of the gastro-intestinal system and the biliary tract) is reported as “favourable”.
In the case of CC(Cc1ccccc1)NC(=O)OC[C@@H]1C=C2c3cccc4[nH]cc(c34)C[C@H]2N(C)C1 (stereo partly drawn) [compound XXV, D-6-methyl-8β-(α-methylphenethylaminocarbonyloxymethyl)-9,10-didehydroergoline], the spasmolytic activity (ileum) is reported as “considerable spasmolytic activity”, the “stimulating effects on the central nervous system” value (central nervous system [3]) is reported as “interesting actions which stimulated the central nervous system” and the “dosages (spasmolytic effects on the muscles of the peripheral vessels)” value [7] is reported as 20-200 micrograms/kilogram. The spasmolytic activity (deferent vessel) was “considerable spasmolytic activity”.
